We go through one compound from patent US12178817B2, “Compounds for enhancing PPARγ expression and nuclear translocation and therapeutic use thereof” (REALINN LIFE SCIENCE LIMITED, priority 2015, dated 2024).

In one data set the test system is PPARγ. The data set is described as follows: Expression of PPARγ in HEK293 cells treated with LPS and dipyridamole (Western blot of nuclear proteins). The format is cell-based, human.
Data set [1] concerns mice with LPS-induced sepsis. The data set is described as follows: Survival rate analysis in mice with LPS-induced sepsis. The format is in vivo. The conditions noted are these: high dose.
Protocol: Male C57Bl/6J mice, 8-12 weeks of age, were used in this study. They were reared in an air-conditioned environment with 6 am to 18 pm light cycle and fed standard rodent chow ad libitum. […] First, mice were injected intraperitoneally with LPS (16 mg/kg) and followed for 72 hours to observe the survival rate.
Data set [2] in a line: Non-invasive blood pressure measurement in mice after intravenous administration. The conditions noted are these: high dose.

Structures are written as SMILES.

Protocol for PPARγ: The cell line used in the assay was human embryonic kidney cells, HEK293. The cells were collected at 0 h, 3 h and 12 h after treatment. The collected cells were washed with 150 μL Buffer A (10 mM Hepes pH=7.9, 1.5 mM MgCl2, 10 mM KCl, 1.0 mM DTT, 0.1% Triton-X 100), and centrifuged at 3000 g for 10 minutes at 4° C. Supernatant containing cytosolic proteins was collected, and the pellets were re-suspended with 50 μL Buffer B (20 mM Hepes pH=7.9, 1.5 mM MgCl2, 0.42M NaCl, 1.0 mM DTT, 1.0M PMSF, 0.2 mM EDTA) and incubated on ice for 30 minutes followed by centrifuging at 12000 g for 10 minutes at 4° C. Supernatant containing nucleic proteins was then collected, and the expression of P65 protein, which is indicative of the activation of PPARγ, was analyzed using Western blotting. The method is as follows: Protein concentration was measured using Bradford assay. 6× sample buffer (0.8 mM Tris-HCl, 10 mM EDTA, 10% SDS, 60% glycerol, 0.6 M β-mercaptoethano, 0.06% bromophenol blue, pH 6.8) was added into 50 μg of nuclear proteins and an equal volume of lysis buffer was added into the samples. After being heated at 95° C. for 10 minutes to denature the proteins, the samples were immediately cooled on ice. […] Photos of the images were taken using automated chemiluminescence and fluorescence imaging system (UVP Biospectrum). […]

For the compound `OCCN(CCO)c1nc(N2CCCCC2)c2nc(N(CCO)CCO)nc(N3CCCCC3)c2n1` [dipyridamole], the “PPARγ expression and nuclear translocation” value with PPARγ is “promote PPARγ expression and nuclear translocation”. The “effect on physiological conditions and survival rate” value in data set [1] is “influences physiological conditions and survival rate”. The “effect on blood pressure” value in data set [2] is recorded as “leads to changes in blood pressure”.
